Experimental findings from publication PMC6625846 (ACS infectious diseases, 2019) are described below.

As usually defined, the IC50 is the midpoint of a concentration-inhibition curve.

Assay [1] addresses T1, recombinant H. influenzae IgA1P (variant A1) (Haemophilus influenzae, UniProt P44969). The assay can be described thus: biochemical.
For assay [2], the target named is T1, recombinant H. influenzae IgA1P (variant A1). In kind it is biochemical. Particulars: up to 100 μM.

As to `Oc1nsnc1N1CCOCC1` [Compound 1a, 4-morpholin-4-yl-1,2,5-thiadiazol-3-ol], in assay [1], the IC50 was > 100000 nM.

As to `O=c1oc(Cl)c(Cl)c2ccccc12` [DCIC, 3,4-dichloroisocoumarin], the IC50 in assay [1] stood at 6 ± 1 nM.

As for `O=S(=O)(F)Cc1ccccc1` [PMSF], the “Inhibition of recombinant H. influenzae IgA1P” value in assay [2] was “did not inhibit”.

Take `NCCc1ccc(S(=O)(=O)F)cc1` [Pefablock]: in assay [2], the “Inhibition of recombinant H. influenzae IgA1P” value is “did not inhibit”.
